Measured values as given in patent US9694027B2, “Pyrazole derivative and use thereof for medical purposes” (KISSEI PHARMACEUTICAL CO. LTD., priority 2012, dated 2017).

Assays:
[1] = test system: Loperamide-induced dog constipation model; assay: Loperamide-induced dog constipation model (Example 1); format: in vivo; details: for Dry fecal weight within 24 hours after the administration / Wet fecal weight within 24 hours after the administration / Frequency of bowel movement within 24 hours after the administration: mean of 10 dogs; for Dry fecal weight within 24 hours after the administration: Control group 1.0, Normal group 47.1; for Wet fecal weight within 24 hours after the administration: Control group 2.8, Normal group 136.2; for Frequency of bowel movement within 24 hours after the administration: observation at 17, 21, 24 hours, Control group 0.2, Normal group 2.1
Experimental: Lubiprostone (TLC Pharma Chem) was weighed and was suspended in 0.5% methylcellulose at preparation concentrations of 0.05 and 0.35 mg/mL to prepare control substances.
Loperamide hydrochloride (Wako pure chemical) was weighed at 0.3, 0.5, 1.0, 2.0, 4.0 or 8.0 mg/kg for each animal and was filled into a gelatin capsule.
Loperamide hydrochloride which was filled into a gelatin capsule was orally administered to dogs (beagle, male, 13-14 months old, 10 dogs, Kitayama-labesu). The dosage was increased from 0.3 mg/kg, and was set at 2.0, 4.0 or 8.0 mg/kg based on the bowel movement condition of each dog.
Tests were performed as a full cross-over trial. More than 5-day washout period was provided between each test, and a recovery of stool form was identified, and then the next test was performed.
A gelatin capsule which was filled with loperamide hydrochloride was administered orally at around 9 a.m. on the first and second days in each test.
The stool form of feces was scored in seven categories based on Bristol Stool Form Scale. The collected feces were dried fully, and then the feces were weighed, and it was set as the dry fecal weight.

[2] = test system: healthy adult males; assay: Single-dose study in healthy adult males (Example 3); format: in vivo, human; details: for Number of subject with gastrointestinal disorders: Abdominal bloating / Number of subject with gastrointestinal disorders: Abdominal pain / Number of subject with gastrointestinal disorders: Diarrhea: of 6 subjects; for Frequency of bowel movement after the administration, Mean: 6 subjects, 48 hours, Placebo 1.7
Experimental: Compound 2 at a single dose of 2, 5, 10, 20, 40, 80 or 160 mg (free drug equivalent), or placebo was orally administered just immediately before breakfast to healthy adult males. For the administration of Compound 2, tablets containing 1, 5 or 10 mg in free drug equivalent were used. The test period was set between the administration and the discharge 48 hours after the administration. Frequencies of bowel movements were checked during consultation by a doctor, and the adverse events (gastrointestinal disorders) were defined when an abnormal finding (diarrhea or loose stool) was seen based on the stool form and the finding.

Increases of loose stool and diarrhea ([1]; all doses of this test): not observed
Number of subject with gastrointestinal disorders: Abdominal bloating ([2]; single dose 2 mg): 0
Number of subject with gastrointestinal disorders: Abdominal pain ([2]; single dose 2 mg): 0
Number of subject with gastrointestinal disorders: Diarrhea ([2]; single dose 2 mg): 1
Number of subject with gastrointestinal disorders: Abdominal bloating ([2]; single dose 5 mg): 0
Number of subject with gastrointestinal disorders: Abdominal pain ([2]; single dose 5 mg): 0
Number of subject with gastrointestinal disorders: Diarrhea ([2]; single dose 5 mg): 0
Number of subject with gastrointestinal disorders: Abdominal bloating ([2]; single dose 10 mg): 0
Number of subject with gastrointestinal disorders: Abdominal pain ([2]; single dose 10 mg): 0
Number of subject with gastrointestinal disorders: Diarrhea ([2]; single dose 10 mg): 2
Number of subject with gastrointestinal disorders: Abdominal bloating ([2]; single dose 20 mg): 0
Number of subject with gastrointestinal disorders: Abdominal pain ([2]; single dose 20 mg): 0
Number of subject with gastrointestinal disorders: Diarrhea ([2]; single dose 20 mg): 2
Number of subject with gastrointestinal disorders: Abdominal bloating ([2]; single dose 40 mg): 0
Number of subject with gastrointestinal disorders: Abdominal pain ([2]; single dose 40 mg): 0
Number of subject with gastrointestinal disorders: Diarrhea ([2]; single dose 40 mg): 2
Number of subject with gastrointestinal disorders: Abdominal bloating ([2]; single dose 80 mg): 2
Number of subject with gastrointestinal disorders: Abdominal pain ([2]; single dose 80 mg): 4
Number of subject with gastrointestinal disorders: Diarrhea ([2]; single dose 80 mg): 5
Number of subject with gastrointestinal disorders: Abdominal bloating ([2]; single dose 160 mg): 3
Number of subject with gastrointestinal disorders: Abdominal pain ([2]; single dose 160 mg): 3
Number of subject with gastrointestinal disorders: Diarrhea ([2]; single dose 160 mg): 6
Severity of gastrointestinal disorders (abdominal bloating, abdominal pain, diarrhea) ([2]; single dose 2-160 mg): mild in all the cases
SMILES: Cc1cc(OCCCNCC(C)(C)C(N)=O)ccc1Cc1c(O[C@@H]2O[C@H](CO)[C@@H](O)[C@H](O)[C@H]2O)n[nH]c1C(C)C.Cc1cc(OCCCNCC(C)(C)C(N)=O)ccc1Cc1c(O[C@@H]2O[C@H](CO)[C@@H](O)[C@H](O)[C@H]2O)n[nH]c1C(C)C.O=C(O)CCCCCCCCC(=O)O [Compound 2, bis[3-(3-{4-[3-(β-D-glucopyranosyloxy)-5-isopropyl-1H-pyrazol-4-ylmethyl]-3-methylphenoxy}propylamino)-2,2-dimethylpropionamide]monosebacate]
Dry fecal weight within 24 hours after the administration ([1]; 1 mg/kg oral): 10.4 g
Wet fecal weight within 24 hours after the administration ([1]; 1 mg/kg oral): 29.5 g
Frequency of bowel movement within 24 hours after the administration ([1]; 1 mg/kg oral): 0.5 time
Wet fecal weight, dry weight and frequency of bowel movements versus Control group ([1]; 3 mg/kg or more, significance level <5%): significantly higher than in Control group
Dry fecal weight within 24 hours after the administration ([1]; 3 mg/kg oral): 21.6 g
Wet fecal weight within 24 hours after the administration ([1]; 3 mg/kg oral): 60.9 g
Frequency of bowel movement within 24 hours after the administration ([1]; 3 mg/kg oral): 1.2 time
Dry fecal weight within 24 hours after the administration ([1]; 10 mg/kg oral): 27.3 g
Wet fecal weight within 24 hours after the administration ([1]; 10 mg/kg oral): 77.2 g
Frequency of bowel movement within 24 hours after the administration ([1]; 10 mg/kg oral): 1.5 time
Dose dependence of wet fecal weight, dry weight and frequency of bowel movements ([1]; within 24 hours after oral administration): dose-dependently increased
Stool form (Bristol Stool Form Scale) ([2]; 80 mg and 160 mg groups): type 6 or 7 for many subjects
Frequency of bowel movement after the administration, Mean ([2]; single oral dose 2 mg (free drug equivalent)): 1.7 time
Frequency of bowel movement after the administration, Mean ([2]; single oral dose 5 mg (free drug equivalent)): 1.0 time
Frequency of bowel movement after the administration, Mean ([2]; single oral dose 10 mg (free drug equivalent)): 2.2 time
Frequency of bowel movement after the administration, Mean ([2]; single oral dose 20 mg (free drug equivalent)): 2.2 time
Frequency of bowel movement after the administration, Mean ([2]; single oral dose 40 mg (free drug equivalent)): 1.8 time
Frequency of bowel movement after the administration, Mean ([2]; single oral dose 80 mg (free drug equivalent)): 4.8 time
Frequency of bowel movement after the administration, Mean ([2]; single oral dose 160 mg (free drug equivalent)): 5.2 time
